Data published in US8192962B2, “Processes for detecting toxic substances” (Daikin Industries, Ltd., priority 2001, dated 2012).

Tested on: Stress protein genes
Assay: DNA chip mRNA expression in yeast, stress protein genes (Table 6)
Assay type: cell-based, Saccharomyces cerevisiae S288C
Outline: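 Value is the scanned fluorescence intensity ratio of exposed versus chemical-free cells. Log-phase S288C yeast in YPD at 25° C. received one toxic substance for two hours, dosed to slow growth without killing; Cy3/Cy5-labeled cDNA from oligo-dT-purified mRNA was hybridized to a whole-genome chip at 65° C.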

Measured: The level of expressed mRNA in the presence of chemical substance/The level of expressed mRNA in the absence of chemical substance

Na2As [(1)]
3.0: yeast gene YER042W
12.5: yeast gene YLL060C
5.2: yeast gene YCR021C
0.8: yeast gene YBR044C | yeast gene YBR126C | yeast gene YDR098C | yeast gene YFL016C | yeast gene YIL033C | yeast gene YJL128C | yeast gene YJR090C | yeast gene YLR109W
0.5: yeast gene YJR045C | yeast gene YKL210W | yeast gene YLL024C
4.2: yeast gene YKL161C
18.5: yeast gene YBR072W
1.1: yeast gene YCR083W | yeast gene YDR033W | yeast gene YDR155C | yeast gene YEL039C | yeast gene YFR052W | yeast gene YHL046C | yeast gene YHR057C | yeast gene YKL163W | yeast gene YLL039C
1.7: yeast gene YDL025C
4.8: yeast gene YPL223C
1.3: yeast gene YBL075C | yeast gene YDR519W | yeast gene YGR088W | yeast gene YIR038C | yeast gene YNL241C | yeast gene YNR076W | yeast gene YOR208W | yeast gene YPR005C
0.6: yeast gene YAL005C | yeast gene YER125W | yeast gene YKL164C | yeast gene YMR186W | yeast gene YPL106C
1.2: yeast gene YAL015C | yeast gene YDR077W | yeast gene YER057C | yeast gene YOL161C | yeast gene YPL059W
0.9: yeast gene YDL022W | yeast gene YDR293C | yeast gene YDR436W | yeast gene YGL115W | yeast gene YGL181W | yeast gene YJL158C | yeast gene YKR053C | yeast gene YML007W | yeast gene YML070W | yeast gene YNL064C | yeast gene YOR009W | yeast gene YPL140C | yeast gene YPL194W | yeast gene YPR026W
1.9: yeast gene YBR054W
0.7: yeast gene YEL030W | yeast gene YER103W | yeast gene YHL028W | yeast gene YIL011W | yeast gene YLR006C | yeast gene YLR259C | yeast gene YOR008C | yeast gene YOR010C | yeast gene YOR027W | yeast gene YPL240C
3.4: yeast gene YFL014W
1.0: yeast gene YBL093C | yeast gene YBR169C | yeast gene YFL020C | yeast gene YGL073W | yeast gene YHR104W | yeast gene YJL159W | yeast gene YJL165C | yeast gene YMR021C
1.8: yeast gene YLL026W
2.2: yeast gene YDR513W
1.6: yeast gene YBR067C | yeast gene YDR258C
2.1: yeast gene YHR030C | yeast gene YNL160W
1.5: yeast gene YMR173W
2.0: yeast gene YCL035C
1.4: yeast gene YIR037W | yeast gene YOL064C
